Experimental data: patent publication US6737383B1, “Herbicidal oxadiazolidines” (priority 1999, dated 2004)

Legend:
soybean = test: Test B pre/postemergence soybean; format: in vivo, Glycine max
Outline: (§1)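 Response is a visual 0-to-10 score relative to untreated plants, where 0 means no effect and 10 means complete control, taken twelve to sixteen days after application. Treatments went onto soil at planting and onto foliage of 1- to 4-leaf plants, using a surfactant-containing non-phytotoxic solvent.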

wild oat = test: Test B pre/postemergence wild oat; format: in vivo, Avena fatua
Outline: as §1

cocklebur = test: Test B pre/postemergence cocklebur; format: in vivo, Xanthium strumarium
Outline: as §1

smallflower flatsedge = test: Test B flood test smallflower flatsedge; format: in vivo, Cyperus difformis
Outline: (§2)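 Flood test on plants grown to the 2-leaf stage; treated plants kept in greenhouse twelve to sixteen days, then visually rated against controls on a 0 (no effect) to 10 (complete control) scale.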

sugar beet = test: Test B pre/postemergence sugar beet; format: in vivo, Beta vulgaris
Outline: as §1

rape = test: Test B pre/postemergence rape; format: in vivo, Brassica napus
Outline: as §1

duck salad = test: Test B flood test duck salad; format: in vivo, Heteranthera limosa
Outline: as §2

pigweed = test: Test B pre/postemergence pigweed; format: in vivo, Amaranthus retroflexus
Outline: as §1

bedstraw = test: Test B pre/postemergence bedstraw; format: in vivo, Galium aparine; settings: Postemergence
Outline: as §1

purple nutsedge = test: Test B pre/postemergence purple nutsedge; format: in vivo, Cyperus rotundus
Outline: as §1

blackgrass = test: Test B pre/postemergence blackgrass; format: in vivo, Alopecurus myosuroides
Outline: as §1

wheat = test: Test B pre/postemergence wheat; format: in vivo, Triticum aestivum
Outline: as §1

corn = test: Test B pre/postemergence corn; format: in vivo, Zea mays
Outline: as §1

giant foxtail = test: Test B pre/postemergence giant foxtail; format: in vivo, Setaria faberii
Outline: as §1

velvetleaf = test: Test B pre/postemergence velvetleaf; format: in vivo, Abutilon theophrasti
Outline: as §1

rice = test: Test B flood test rice; format: in vivo, Oryza sativa
Outline: as §2

bamyardgrass = test: Test B flood test barnyardgrass; format: in vivo, Echinochloa crus-galli
Outline: as §2

surinam grass = test: Test B pre/postemergence surinam grass; format: in vivo, Brachiaria decumbens
Outline: as §1

crabgrass = test: Test B pre/postemergence crabgrass; format: in vivo, Digitaria sanguinalis
Outline: as §1

morningglory = test: Test B pre/postemergence morningglory; format: in vivo, Ipomoea hederacea
Outline: as §1

[1] = Postemergence, Rate 62 g/ha, scale 0 to 10, 0 is no effect, 10 is complete control
[2] = Postemergence, Rate 125 g/ha, scale of 0 to 10 where 0 is no effect and 10 is complete control
[3] = Postemergence, Rate 250 g/ha, scale of 0 to 10, 0 is no effect, 10 is complete control
[4] = Preemergence, Rate 62 g/ha, scale 0 to 10 (0 no effect, 10 complete control)
[5] = Preemergence, Rate 125 g/ha, scale of 0 to 10 where 0 is no effect and 10 is complete control
[6] = Preemergence, Rate 500 g/ha, scale of 0 to 10 where 0 is no effect and 10 is complete control
[7] = Postemergence, Rate 500 g/ha, scale of 0 to 10 where 0 is no effect and 10 is complete control
[8] = Rate 62 g/ha, flood test species, Pre-emergence, visual evaluation after twelve to sixteen days
[9] = Rate 125 g/ha, under heading Pre-emergence, flood test species, visual evaluation after twelve to sixteen days
[10] = Rate 250 g/ha, Pre-emergence (flood test species), scale 0 to 10, 0 is no effect, 10 is complete control
[11] = Rate 500 g/ha, Pre-emergence section of Table B, 0 to 10 scale (0 no effect, 10 complete control)

SMILES: C=C(C)Cn1c(=O)on(C(=O)N(c2ccccc2)C(C)C)c1=O [Compound 607]
- Plant response rating, Soybean (soybean; [1]): 3
- Plant response rating, Soybean (soybean; [2]): 4
- Soybean plant response rating (soybean; [3]): 6
- Soybean plant response rating (soybean; [4]): 0
- Soybean plant response rating (soybean; [5]): 0
- Plant response rating, Soybean (soybean; [6]): 4
- Plant response rating, Wild oats (wild oat; [1]): 0
- Plant response rating, Wild oats (wild oat; [2]): 0
- Wild oats plant response rating (wild oat; [3]): 0
- Plant response rating, Wild oats (wild oat; [7]): 4
- Wild oats plant response rating (wild oat; [4]): 0
- Wild oats plant response rating (wild oat; [5]): 2
- Plant response rating, Wild oats (wild oat; [6]): 6
- Plant response rating, Cocklebur (cocklebur; [1]): 0
- Plant response rating, Cocklebur (cocklebur; [2]): 0
- Cocklebur plant response rating (cocklebur; [3]): 0
- Plant response rating, Cocklebur (cocklebur; [7]): 0
- Cocklebur plant response rating (cocklebur; [4]): 0
- Cocklebur plant response rating (cocklebur; [5]): 0
- Cocklebur plant response rating (0 to 10 scale) (cocklebur; Preemergence, Rate 250 g/ha): 0
- Plant response rating, Cocklebur (cocklebur; [6]): 0
- Plant response rating, S. Flatsedge (0 to 10 scale, 0 is no effect, 10 is complete control) (smallflower flatsedge; [8]): 0
- S. Flatsedge plant response rating (0 to 10 scale, 0 is no effect, 10 is complete control) (smallflower flatsedge; [9]): 0
- S. Flatsedge plant response rating (smallflower flatsedge; [10]): 0
- S. Flatsedge plant response rating (smallflower flatsedge; [11]): 0
- Plant response rating, Sugarbeets (sugar beet; [1]): 0
- Plant response rating, Sugarbeets (sugar beet; [2]): 0
- Sugarbeets plant response rating (sugar beet; [3]): 0
- Plant response rating, Sugarbeets (sugar beet; [7]): 0
- Sugarbeets plant response rating (sugar beet; [4]): 0
- Sugarbeets plant response rating (sugar beet; [5]): 0
- Plant response rating, Sugarbeets (sugar beet; [6]): 5
- Plant response rating, Rape (rape; [1]): 0
- Plant response rating, Rape (rape; [2]): 0
- Rape plant response rating (rape; [3]): 0
- Plant response rating, Rape (rape; [7]): 0
- Rape plant response rating (rape; [4]): 0
- Rape plant response rating (rape; [5]): 6
- Plant response rating, Rape (rape; [6]): 7
- Plant response rating, Ducksalad (0 to 10 scale, 0 is no effect, 10 is complete control) (duck salad; [8]): 0
- Ducksalad plant response rating (0 to 10 scale, 0 is no effect, 10 is complete control) (duck salad; [9]): 0
- Ducksalad plant response rating (duck salad; [10]): 0
- Ducksalad plant response rating (duck salad; [11]): 0
- Plant response rating, Redroot pigweed (pigweed; [1]): 0
- Plant response rating, Redroot pigweed (pigweed; [2]): 0
- Redroot pigweed plant response rating (pigweed; [3]): 0
- Plant response rating, Redroot pigweed (pigweed; [7]): 5
- Redroot pigweed plant response rating (pigweed; [4]): 4
- Redroot pigweed plant response rating (pigweed; [5]): 7
- Plant response rating, Redroot pigweed (pigweed; [6]): 10
- Plant response rating, Bedstraw (bedstraw; Rate 62 g/ha, scale 0 to 10, 0 is no effect, 10 is complete control): 0
- Plant response rating, Bedstraw (bedstraw; Rate 125 g/ha, scale of 0 to 10 where 0 is no effect and 10 is complete control): 0
- Plant response rating, Nutsedge (purple nutsedge; [1]): 0
- Plant response rating, Nutsedge (purple nutsedge; [2]): 0
- Nutsedge plant response rating (purple nutsedge; [3]): 0
- Plant response rating, Nutsedge (purple nutsedge; [7]): 7
- Nutsedge plant response rating (purple nutsedge; [5]): 0
- Plant response rating, Nutsedge (purple nutsedge; [6]): 0
- Plant response rating, Blackgrass (blackgrass; [1]): 0
- Plant response rating, Blackgrass (blackgrass; [2]): 4
- Blackgrass plant response rating (blackgrass; [3]): 6
- Plant response rating, Blackgrass (blackgrass; [7]): 7
- Blackgrass plant response rating (blackgrass; [4]): 4
- Blackgrass plant response rating (blackgrass; [5]): 7
- Blackgrass plant response rating (0 to 10 scale) (blackgrass; Preemergence, Rate 250 g/ha): 8
- Blackgrass plant response rating (blackgrass; [6]): 9
- Plant response rating, Wheat (wheat; [1]): 0
- Plant response rating, Wheat (wheat; [2]): 0
- Wheat plant response rating (wheat; [3]): 2
- Plant response rating, Wheat (wheat; [7]): 4
- Wheat plant response rating (wheat; [4]): 0
- Wheat plant response rating (wheat; [5]): 0
- Plant response rating, Wheat (wheat; [6]): 3
- Plant response rating, Corn (corn; [1]): 0
- Plant response rating, Corn (corn; [2]): 0
- Corn plant response rating (corn; [3]): 0
- Plant response rating, Corn (corn; [7]): 2
- Corn plant response rating (corn; [4]): 0
- Corn plant response rating (corn; [5]): 0
- Corn plant response rating (0 to 10 scale) (corn; Preemergence, Rate 250 g/ha): 0
- Plant response rating, Corn (corn; [6]): 6
- Plant response rating, Giant foxtail (giant foxtail; [1]): 6
- Plant response rating, Giant foxtail (giant foxtail; [2]): 6
- Giant foxtail plant response rating (giant foxtail; [3]): 7
- Plant response rating, Giant foxtail (giant foxtail; [7]): 9
- Giant foxtail plant response rating (giant foxtail; [4]): 9
- Giant foxtail plant response rating (giant foxtail; [5]): 10
- Plant response rating, Giant foxtail (giant foxtail; [6]): 10
- Plant response rating, Velvetleaf (velvetleaf; [1]): 0
- Plant response rating, Velvetleaf (velvetleaf; [2]): 0
- Velvetleaf plant response rating (velvetleaf; [3]): 3
- Plant response rating, Velvetleaf (velvetleaf; [7]): 5
- Velvetleaf plant response rating (velvetleaf; [4]): 0
- Velvetleaf plant response rating (velvetleaf; [5]): 3
- Plant response rating, Velvetleaf (velvetleaf; [6]): 8
- Plant response rating, Rice (0 to 10 scale, 0 is no effect, 10 is complete control) (rice; [8]): 0
- Rice plant response rating (0 to 10 scale, 0 is no effect, 10 is complete control) (rice; [9]): 0
- Rice plant response rating (rice; [10]): 0
- Rice plant response rating (rice; [11]): 0
- Plant response rating, Barnyardgrass (0 to 10 scale, 0 is no effect, 10 is complete control) (bamyardgrass; [8]): 0
- Barnyardgrass plant response rating (0 to 10 scale, 0 is no effect, 10 is complete control) (bamyardgrass; [9]): 0
- Barnyardgrass plant response rating (bamyardgrass; [10]): 0
- Barnyardgrass plant response rating (bamyardgrass; [11]): 0
- Plant response rating, B. signalgrass (surinam grass; [1]): 0
- Plant response rating, B. signalgrass (surinam grass; [2]): 0
- B. signalgrass plant response rating (surinam grass; [3]): 4
- Plant response rating, B. signalgrass (surinam grass; [7]): 7
- B. signalgrass plant response rating (surinam grass; [4]): 4
- B. signalgrass plant response rating (surinam grass; [5]): 7
- B. signalgrass plant response rating (0 to 10 scale, 0 is no effect, 10 is complete control) (surinam grass; Preemergence, Rate 250 g/ha): 8
- B. signalgrass plant response rating (surinam grass; [6]): 8
- Plant response rating, Crabgrass (crabgrass; [1]): 5
- Crabgrass plant response rating (crabgrass; [3]): 8
- Plant response rating, Crabgrass (crabgrass; [7]): 9
- Crabgrass plant response rating (crabgrass; [4]): 7
- Crabgrass plant response rating (crabgrass; [5]): 8
- Plant response rating, Crabgrass (crabgrass; [6]): 9
- Plant response rating, Morningglory (morningglory; [1]): 6
- Plant response rating, Morningglory (morningglory; [2]): 8
- Morningglory plant response rating (morningglory; [3]): 8
- Plant response rating, Morningglory (morningglory; [7]): 10
- Morningglory plant response rating (morningglory; [4]): 0
- Morningglory plant response rating (morningglory; [5]): 0
- Plant response rating, Morningglory (morningglory; [6]): 0
